Source: US5618681A, “Polyaromatic hydrocarbon (PAH) immunoassay method, its components and a kit for use in performing the same” (priority 1995, dated 1997)

Tested on: anti-PAH monoclonal antibody
Assay: PAH immunoassay (competitive, antibody coated tubes): cross-reactivity with the anti-PAH monoclonal antibody
Format: binding, Balb/c mice
Conditions: for Percent Cross-Reactivity: phenanthrene 100%; for detection in the immunoassay: at 200 ppm levels
Description: Female Balb/c mice received a primary subcutaneous immunization with 50 ug of β-methylnaphthalene derivatized to bovine serum albumin in adjuvant (MPL+TDM Emulsion, RIBI Immunochem Research, Inc., Hamilton, Mont.). Subcutaneous secondary injections (25 ug) were given at day 21, 35, and then monthly. […] Hybridoma cultures producing monoclonal antibodies recognizing free hapten by EIA were cloned by limiting dilution.
Antibody coated tubes were prepared by passively coating polystyrene (12X75 mm, NUNC) tubes with the monoclonal F12-3C8 antibody diluted in PBS and incubating overnight. The NUNC polystyrene tubes were rinsed with hexane prior to use and were all from the same lot.
10 g of a soil sample were placed in an extraction vial containing 20 mL of methanol and 5 steel pellets (6 mm) and the vial and its contents shaken for 1 minute to disperse the soil particles and extract the PAHs. The sample was then filtered to clarify the sample extract using a glass fiber depth filter and a 0.45μ Teflon filter. 45 uL of the clarified filtrate sample was mixed with 955 μl of 10 mM PBS (pH=7.4) and the resulting mixture added to lyophilized enzyme conjugate reagent (0.3 μg) and mixed. At the same time, 2×45 uL of the phenanthrene standard are similarly treated. The sample and the two standards were then poured into three identical antibody coated tubes, respectively, and the resulting solution mixed. The resulting solution was incubated for 10 minutes at ambient temperature and then washed 4X with a wash buffer (detergent-saline solution). 250 uL of tetramethylbenzidene solution (KP Laboratories, Cat. No. 50-76-02) was added along with 250 uL of hydrogen peroxide solution (KPL, Cat. No. 50-65-02) and the resultant solution mixed. After incubating for 2.5 minutes the color development reaction was stopped with 250 uL of stop solution (1M sulfuric acid).
The optical density (OD) of the test sample was compared to the OD of the phenanthrene standard (0.65 ppm soil equivalents) which was tested simultaneously with the sample. If the sample OD is less than the standard OD, the sample contains more than 1 ppm PAH. […] Other concentration ranges can be assessed by diluting the test samples with suitable diluents, as long as they are non-reactive with the components of the assay.
In addition other potentially cross-reactive compounds were tested.

[1] = Non-EPA PAHs and other compounds

| Compound | Percent Cross-Reactivity [1] | Concentration Giving a Positive Result (ppm, soil equivalent) [1] | Percent Cross-Reactivity (Method 8310 EPA PAHs) | Concentration Giving A Positive Result (ppm, soil equivalent) (Method 8310 EPA PAHs) | detection in the immunoassay | concentration in soil at which the PAH immunoassay will provide a positive result (in soils) |
| --- | --- | --- | --- | --- | --- | --- |
| Clc1cccc2ccccc12 [1-chloronaphthalene] | 1.7% | 59 ppm |  |  |  |  |
| Cc1cccc2ccccc12 [1-methylnaphthalene] | 1.8% | 54 ppm |  |  |  |  |
| Clc1cc(Cl)c(Cl)cc1Cl [2,3,5,6-Tetrachlorobenzene] | < 0.5% | > 200 ppm |  |  |  |  |
| Clc1cc(Cl)cc(Cl)c1 [2,4,6-Trichlorobenzene] | < 0.5% | > 200 ppm |  |  |  |  |
| Cc1ccc2ccccc2c1 [2-methylnaphthalene] | 1.7% | 58 ppm |  |  |  |  |
| c1cc2c3c(cccc3c1)CC2 [Acenaphthene] |  |  | 12% | 8.1 ppm |  |  |
| C1=Cc2cccc3cccc1c23 [Acenaphthylene] |  |  | 13% | 7.5 ppm |  |  |
| c1ccc2cc3ccccc3cc2c1 [Anthracene] |  |  | 123% | 0.81 ppm |  |  |
| c1ccccc1 [Benzene] | < 0.5% | > 200 ppm |  |  | not detected |  |
| c1ccc2cc3c(ccc4ccccc43)cc2c1 [Benzo(a)anthracene] |  |  | 64% | 1.6 ppm |  |  |
| c1ccc2c(c1)cc1ccc3cccc4ccc2c1c34 [Benzo(a)pyrene] |  |  | 12% | 8.3 ppm |  | ≥ 8.3 ppm |
| c1ccc2c(c1)-c1cccc3c1c-2cc1ccccc13 [Benzo(b)fluoranthene] |  |  | 22% | 4.6 ppm |  |  |
| c1cc2ccc3ccc4ccc5cccc6c(c1)c2c3c4c56 [Benzo(ghi)perylene] |  |  | < 0.5% | > 200 ppm |  |  |
| c1ccc2cc3c(cc2c1)-c1cccc2cccc-3c12 [Benzo(k)fluoranthene] |  |  | 11% | 9.4 ppm |  |  |
| CCCCC(CC)COC(=O)c1ccccc1C(=O)OCC(CC)CCCC (centres unmarked) [Bis(2-ethylhexyl) phthalate] | < 0.5% | > 200 ppm |  |  |  |  |
| c1ccc2c(c1)ccc1c3ccccc3ccc21 [Chrysene] |  |  | 84% | 1.2 ppm |  |  |
| c1ccc2c(c1)ccc1cc3c(ccc4ccccc43)cc12 [Dibenzo(a,h)anthracene] |  |  | < 0.5% | > 200 ppm |  |  |
| c1ccc2c(c1)oc1ccccc12 [Dibenzofuran] | 7.2% | 14 ppm |  |  |  |  |
| c1ccc2c(c1)-c1cccc3cccc-2c13 [Fluoranthene] |  |  | 73% | 1.4 ppm |  |  |
| c1ccc2c(c1)Cc1ccccc1-2 [Fluorene] |  |  | 67% | 1.5 ppm |  |  |
| c1ccc2c(c1)-c1ccc3ccc4cccc5cc-2c1c3c45 [Indeno(1,2,3-cd)pyrene] |  |  | 9.4% | 11 ppm |  |  |
| c1ccc2ccccc2c1 [Naphthalene] |  |  | 0.5% | 200 ppm |  |  |
| Clc1cc(Cl)c(Cl)c(Cl)c1Cl [Pentachlorobenzene] | < 0.5% | > 200 ppm |  |  |  |  |
| Oc1c(Cl)c(Cl)c(Cl)c(Cl)c1Cl [Pentachlorophenol] | < 0.5% | > 200 ppm |  |  |  |  |
| c1ccc2c(c1)ccc1ccccc12 [Phenanthrene, reference compound] |  |  | 100% | 1.0 ppm |  |  |
| Oc1ccccc1 [Phenol] | < 0.5% | > 200 ppm |  |  | not detected |  |
| c1cc2ccc3cccc4ccc(c1)c2c34 [Pyrene] |  |  | 29% | 3.5 ppm |  |  |
| Cc1ccccc1 [Toluene] | < 0.5% | > 200 ppm |  |  |  |  |
